Results reported in PubChem BioAssay (NCI).
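Exposure lasted 48 hours, with cells grown in 96-well plates and compounds tested at five concentrations. GI50 is the concentration that inhibits growth by half. TGI: concentration producing complete growth inhibition.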

What was measured:
Experiment in all cases: NCI tumour cell line growth inhibition, 48 h
[1] = system: HS 578T breast
[2] = system: SF-539 CNS
[3] = system: MALME-3M melanoma
[4] = system: T-47D breast
[5] = system: HOP-62 NSCLC
[6] = system: HCT-116 colon
[7] = system: UACC-62 melanoma
[8] = system: KM12 colon
[9] = system: LXFL 529 NSCLC
[10] = system: M19-MEL melanoma
[11] = system: DMS 273 small cell lung
[12] = system: DMS 114 small cell lung

Row | Structure (SMILES) | GI50 [1] | TGI [1] | GI50 [2] | TGI [2] | GI50 [3] | TGI [3] | GI50 [4] | TGI [4] | GI50 [5] | TGI [5] | GI50 [6] | TGI [6] | GI50 [7] | TGI [7] | GI50 [8] | TGI [8] | TGI [9] | TGI [10] | TGI [11] | TGI [12]
1 | O=C(CN(/C=C/C(=O)C(F)(F)F)c1ccc(Cl)cc1)c1ccc(Cl)cc1 | 13.8 µM | 42.5 µM | 19.2 µM | 36.9 µM | 15.5 µM | 50.8 µM | 5.88 µM | 38.3 µM | 32.8 µM | > 100 µM | 4.09 µM | 20.7 µM | 3.03 µM | 13.4 µM | 3.59 µM | 20.8 µM |  |  |  | 
2 | COc1cc(/C=C/c2cc(/C=C/c3ccc(O)c(OC)c3)n(C(=O)c3ccc(Cl)cc3)n2)ccc1O | 3.23 µM | > 100 µM | 1.24 µM | 6.07 µM | 1.31 µM | 10.1 µM | 1.92 µM | 5.86 µM | 2.08 µM | 6.92 µM | 2.15 µM | 47.9 µM | 2.72 µM | 10.1 µM | 1.24 µM | 14.4 µM |  |  |  | 
3 | O=c1oc2ccc(I)cc2c(=O)n1-c1ccc(Br)cc1F | 0.345 µM | 3.14 µM | 0.632 µM | 4.99 µM | 0.462 µM | 2.55 µM | 0.856 µM | 6.7 µM | 1.83 µM | 6.65 µM | 0.621 µM | 2.38 µM | 0.31 µM | 1.17 µM | 2.07 µM | 4.69 µM |  |  |  | 
4 | Cc1cc2nc(NCCN)n(Cc3ccc(F)c(Cl)c3)c2cc1C | 11.8 µM | 28.2 µM | 11.7 µM | 26 µM | 1.83 µM | 4.19 µM | 6.16 µM | 21.7 µM | 14.2 µM | 28.5 µM | 2.29 µM | 4.7 µM | 13.3 µM | 27.2 µM | 5.28 µM | 18.6 µM |  |  |  | 
5 | COC1CCC(OS(C)(=O)=O)C(CO)O1 (stereo not drawn) |  |  |  | > 100 µM |  | > 100 µM |  |  |  | > 100 µM |  | > 100 µM |  | > 100 µM |  | > 100 µM | > 100 µM | > 100 µM |  | 
6 | C=CCNC(=O)NCCCCC(NC(C)=O)C(=O)NCc1ccccc1 (stereo not drawn) |  |  |  | > 100 µM |  | > 100 µM |  |  |  | > 100 µM |  |  |  | > 100 µM |  | > 100 µM | > 100 µM | > 100 µM | > 100 µM | > 100 µM
7 | CCc1ccc(Oc2c(-c3ccc(OCc4ccc(Cl)cc4)cc3O)n[nH]c2C(F)(F)F)cc1 | 2.66 µM | 8.11 µM | 1.96 µM | 4.41 µM | 1.78 µM | 3.47 µM | 1.71 µM | 4.25 µM | 1.87 µM | 3.48 µM | 1.67 µM | 3.19 µM | 1.8 µM | 4.81 µM | 1.77 µM | 3.35 µM |  |  |  | 
8 | Cc1nc([N+](=O)[O-])cn1-c1nc2ccccn2c1[N+](=O)[O-] |  | > 100 µM |  | > 100 µM |  | > 100 µM |  | > 100 µM |  | > 100 µM |  | > 100 µM |  | > 100 µM |  | > 100 µM |  |  |  | 
9 | CNC(=O)c1c(C)oc2cc(Oc3ncnc4cc(OC)c(OC)cc34)ccc12 | 4.18 µM | > 100 µM | 2.03 µM | > 100 µM | > 100 µM | > 100 µM | > 100 µM | > 100 µM | > 100 µM | > 100 µM | > 100 µM | > 100 µM | > 100 µM | > 100 µM | > 100 µM | > 100 µM |  |  |  | 
10 | CC1(C)OC2C(CCP(=O)(O)O)OC(c3nc(C(N)=O)cs3)C2O1 (stereo not drawn) |  |  |  |  |  | > 100 µM |  |  |  |  |  | > 100 µM |  | > 100 µM |  | > 100 µM | > 100 µM | > 100 µM | > 100 µM | > 100 µM
11 | O=C(O)CCNCC(=O)O |  | > 100 µM |  | > 100 µM |  | > 100 µM |  | > 100 µM |  | > 100 µM |  | > 100 µM |  | > 100 µM |  | > 100 µM |  |  |  | 
12 | COc1ccc(/C=C\c2cc(OC)c(OC)c(OC)c2)cc1OCC(=O)Nc1nc2ccc(F)cc2s1 | > 100 µM | > 100 µM | 4.51 µM | > 100 µM | 5.22 µM | > 100 µM | 3.39 µM | 68.5 µM | 5.7 µM | > 100 µM | 4.48 µM | > 100 µM | 4.05 µM | > 100 µM | 4.78 µM | > 100 µM |  |  |  | 
13 | O=c1c2ccccc2sc2c(NCCCNCCO)nc3ccccc3c12 | 1.67 µM | 5.65 µM | 1.65 µM | 3.23 µM | 1.58 µM | 3.3 µM | 1.99 µM | 4.38 µM | 1.34 µM | 2.82 µM | 1.3 µM | 2.6 µM | 1.89 µM | 3.85 µM | 1.77 µM | 3.48 µM |  |  |  | 
14 | Cc1nn(CNc2ccccc2C(F)(F)F)c(=S)n1/N=C/c1cccc2cccnc12 | > 100 µM | > 100 µM | > 100 µM | > 100 µM | > 100 µM | > 100 µM | > 100 µM | > 100 µM | > 100 µM | > 100 µM | 44.6 µM | > 100 µM | 33.8 µM | > 100 µM | 43.7 µM | > 100 µM |  |  |  | 
15 | O=C1Nc2c(ccc(Cl)c2Cl)/C1=C/c1cc(Br)c(O)c(Br)c1 | 4.32 µM | 46.4 µM | 3.21 µM | 14.8 µM | 2.53 µM | 32.4 µM | 2.99 µM | 12.3 µM | 11.9 µM | > 68 µM | 4.45 µM | > 44.9 µM | 2.49 µM | 13.3 µM | 4.75 µM | 40.2 µM |  |  |  | 
16 | COC(=O)c1cc2c(=O)n(C)c3ccccc3n2c1C(=O)OC |  |  |  | 75.8 µM |  | > 100 µM |  |  |  | 36.9 µM |  |  |  | > 100 µM |  | > 100 µM | > 100 µM | > 100 µM | > 100 µM | > 100 µM
17 | CC(=O)Nc1ccc(/C=C/C(=O)c2sc(-c3cccnc3)nc2C)cc1 |  |  |  | > 100 µM |  | > 100 µM |  |  |  | > 100 µM |  |  |  | > 100 µM |  | > 100 µM |  | > 100 µM | > 100 µM | > 100 µM
